Data on 33 compounds can be found in the METLIN SMRT retention time set (Domingo-Almenara et al. 2019).

Structures are written as SMILES.

A short description of this data set: gradient 5% acetonitrile 3 min, to 50% in 2 min, to 85% in 15 min, held 3 min, 100 µL/min. The conditions noted are these: column: Zorbax Extend-C18 2.1 x 50 mm; eluents: water / acetonitrile, 0.1% formic acid. In outline:
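The system's dead and dwell volumes were 40 μL and 900 μL, with a Zorbax Extend-C18 column (2.1 × 50 mm, 1.8 μm) run at 100 μL/min in water and acetonitrile containing 0.1% formic acid each. Pure standards were analyzed in mixtures of ~100 molecules by HPLC–quadrupole time-of-flight mass spectrometry in positive and negative ionization mode. Retention time was assigned from computationally picked, manually inspected adduct peaks.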
In the case of `CCn1ccc(C(=O)N2C[C@@H]3CCCN4CCC[C@@H]([C@H]34)[C@H]2CCCC(=O)N2CCOCC2)n1`, the RP-LC retention time is 580 s. In the case of `CCC1CCCCN1S(=O)(=O)c1cc(-c2nc(C)c(C)s2)sc1C` (stereo not drawn) it was 1320 s; in that of `Cc1ccc(CNC(=O)c2ccc3ncnc(N4CCCCC4)c3c2)o1`, 637 s; in that of `Cc1ccc2nc(NC3=NCN(CCc4cccs4)CN3)nc(C)c2c1`, 746 s. With `Cc1nc(CC(=O)N2CCC(C(N)=O)CC2)cs1` the figure was 646 s. Consider `O=C([C@@H]1OCC(=O)N(C2CC2)[C@H]1c1ccccc1)N1CCN(c2ccccc2)CC1`, for which the RP-LC retention time turned out to be 834 s.

Turning to `O=C1COc2cccnc2N1`, the RP-LC retention time amounted to 648 s. In the case of `Cc1cc(Cl)ccc1NC(=O)c1cccn1Cc1noc(C2CC2)n1` it was 1020 s; in that of `COc1ccc(-c2csc3nc[nH]c(=O)c23)cc1`, 671 s. As for `Cc1ccc(C)c(S(=O)(=O)N2CCC3(CCC(CN4CCN(C)CC4)O3)CC2)c1` (stereo not drawn), the RP-LC retention time is 638 s.

Consider `Cc1ccc(N2CC(c3nc(-c4ccc5c(c4)nc(C)c(=O)n5C)no3)CC2=O)cc1` (stereo not drawn), for which the RP-LC retention time was 837 s. In the case of `CCc1cccc(NC(=O)Cn2c(C)nc3c(sc4nc(-c5ccccc5)ccc43)c2=O)c1` it was 1170 s; in that of `CC1CCCCN1S(=O)(=O)c1ccc2c(c1)CCC(=O)N2CC(=O)NCCc1ccccc1` (stereo not drawn), 900 s; in that of `Clc1ccc(CNc2nnc(N3CCOCC3)c3ccccc23)cc1`, 693 s. In the case of `COc1cc(Cc2nc(-c3cccc(-c4ccn[nH]4)c3)no2)cc(OC)c1` it was 937 s; in that of `O=C(c1ccc(-c2csc(C3CC3)n2)cc1)N1CCCCC1`, 971 s. `O=C(Cn1c(=O)n(Cc2ccc3c(c2)OCO3)c(=O)c2ncccc21)c1ccccc1`: the RP-LC retention time amounted to 818 s. As to `COCCc1noc(-c2nc(-c3ccc(OC)cc3)no2)n1`, the RP-LC retention time stood at 976 s. In the case of `CCCNC(=O)c1c(O)c2cccnc2n(-c2ccc(OC)cc2)c1=O` it was 1080 s. In the case of `O=S(=O)(c1ccccc1)N1CC(n2cnnc2-c2ccccc2)C1` it was 641 s; in that of `Cc1ccc2c(c1)C(C)(C)C(=O)N2CC(=O)NCc1ccc(F)cc1`, 915 s; in that of `COc1cccc(-c2nc(-c3cccc(-c4ccn[nH]4)c3)no2)c1`, 1010 s. As for `Cc1nn(-c2ccc(SCC(=O)NC(C)C)nn2)c(C)c1C`, the RP-LC retention time came out at 776 s. With `O=C1CCCCC1Oc1cc(O)c2c(=O)cc(-c3ccccc3)oc2c1` (stereo not drawn) the figure was 1090 s; with `CC(=O)NCc1ccc(-c2noc(-c3ccc(Br)cc3)n2)s1`, 938 s; with `CC(C)N(C(=O)Cn1c(C2CC(=O)N(C(C)(C)C)C2)nc2ccccc21)c1ccccc1` (stereo not drawn), 702 s.

Consider `O=C(NCc1cc(F)cc(F)c1)C1CCN(c2nnc(-c3ccccc3)o2)CC1`, for which the RP-LC retention time was 844 s. In the case of `O=C(c1nnc(-c2ccc(S(=O)(=O)N3CCCCC3)cc2)o1)N1CCC(Cc2ccccc2)CC1` it was 1230 s; in that of `O=C(CCCc1nc2ccccc2s1)N1CCC(CCOc2ccccc2)C1` (stereo not drawn), 1050 s. `COc1ccc(-c2cc(N3CCC(NC(=O)c4cccc(C#N)c4)C3)n[nH]2)cc1` (stereo not drawn) displayed an RP-LC retention time of 692 s.

Regarding `Clc1ccccc1-c1nc2ccccc2[nH]1`, the RP-LC retention time is 663 s. With `Cc1cc(=O)n(CC(=O)Nc2ccc(N(C)C)cc2)c(-c2ccccc2)n1` the figure was 639 s. With `Cc1cc(-c2nnc3sc(COc4ccc(Br)cc4)nn23)n[nH]1` the figure was 786 s.
